Results taken from patent US20250353809A1, “NITROGEN-CONTAINING CHAIN COMPOUND, PREPARATION METHOD, COMPOSITION CONTAINING SAID COMPOUND, AND USE THEREOF” (SHANGHAI RNACURE BIOPHARMA CO., LTD., priority 2022, published 2025).

How the values were obtained:
[1] = Particle size and PDI of LNP preparation by dynamic light scattering (Malvern Zetasizer Ultra); type: physicochemical
[2] = Encapsulation efficiency of LNP (Quant-it Ribogreen RNA quantitative assay kit); type: physicochemical
[3] = Surface potential of LNP preparation (Malvern Zetasizer Ultra); type: physicochemical; conditions: Table 3; LNP 40:11:47.4:1.6, N/P 8:1
Method: (§1) In this example, the ionizable lipids prepared from Preparation Example 3 to Preparation Example 17 were selected. Following the same method as in Example 1, an LNP preparation (encapsulating Fluc mRNA) was prepared according to a molar ratio and a nitrogen-to-phosphorus ratio shown in Table 3. Malvern Zetasizer Ultra was used to measure a particle size, a PDI, and a surface potential of each LNP preparation; a Quant-it Ribogreen RNA quantification assay kit (manufacturer: ThermoFisher Scientific, item number: R11490) was used to measure encapsulation efficiency of LNP; and a dye binding test of 6-(p-Toluidino)-2-naphthalene sulfonic acid sodium salt (TNS, purchased from Nanjing Xize Pharmaceutical Technology Co., Ltd., item number: XZ0743) was used to measure pKa of the LNP.

[4] = pKa of LNP by TNS dye binding test; type: physicochemical; conditions: Table 3, pKa of the LNP, 40:11:47.4:1.6, N/P 8:1
Method: as §1

female Balb/C mice [5] = experiment: In-vivo bioluminescence (overall luminescence intensity, AUC) after tail vein injection of Fluc mRNA LNP; conditions: 5 μg/mouse, liver site, Table 3 LNP
female Balb/C mice [6] = experiment: In-vivo bioluminescence at lower limb administration site after intramuscular injection of Fluc mRNA LNP; conditions: 5 μg/mouse, Table 3 LNP
Method: In this example, LQ104-1 to LQ104-8 (encapsulating Fluc mRNA) from Example 1 were injected via tail vein into female Balb/C mice (Viton Lihua) aged 6 to 8 weeks at a dose of 5 μg/mouse (n=3, i.e. 3 mice were used for injection and testing in each group, and the data results presented were the mean measurements of each group). […] potassium salt was intraperitoneally injected at specific time points after administration (in this example, 6th hour, 24th hour, and 48th hour), and then the luminescence was detected by an IVIS Spectrum small animal living imager instrument (manufacturer: PerkinElmer). The overall luminescence intensity of live expression sites (such as the liver) in mice was counted. […] The overall luminescence intensity was the luminescence intensity data, measured by bioluminescence imaging, of the luminescent site obtained 6 to 15 minutes (min) after intraperitoneal injection of […] potassium salt. The overall luminescence intensity of the in vivo expression area was counted by using Living Image software (manufacturer: PerkinElmer), furthermore, an area under the curve (AUC, unit: p/s*hour) was calculated by using GraphPad software, and the AUC in each example of the present application is the area under the curve of a line connecting measurement points of the overall luminescence intensity from the 4th or 6th hour after drug administration (using the experimental method of the present application, peak values are the same from 3-6 hours after drug administration) to the 48th hour after drug administration. Test results were shown in FIG. 3 and FIG. 4A, as well as Table 2.
Furthermore, referring to the mouse in-vivo experimental method of Example 3, each group of LNP preparations in this example was injected into female Balb/C mice aged 6 to 8 weeks through tail vein injection or intramuscular injection of the lower limbs at a dose of 5 μg/mouse. The overall luminescence intensity of the liver or lower limb administration site was counted, and the test results were shown in FIG. 5A to FIG. 5D and Table 4A to Table 4D). […]

female Balb/C mice [7] = experiment: Total Spike antibody titer in serum (ELISA) after intramuscular injection of Spike mRNA LNP; type: in vivo; conditions: 2 μg/mouse, second injection on 21st day, serum 7th day after second administration, n=8, compared with PBS
[8] = Table 3, LNP 40:11:47.4:1.6, N/P 8:1
[9] = Table 3, LNP lipid:DSPC:cholesterol:DMG-PEG = 40:11:47.4:1.6, nitrogen-to-phosphorus ratio 8:1, Fluc mRNA
[10] = Table 1, Example 1 LNP preparations

Compound	PDI [1, 8]	Particle size (nm) [1, 9]	Encapsulation efficiency (%) [2, 8]	Surface potential (mV) [3]	pKa [4]	AUC (p/s*hour) (female Balb/C mice [5]; Table 4A (FIG. 5A))	AUC (p/s*hour) (female Balb/C mice [6]; Table 4C (FIG. 5C))	AUC (p/s*hour) (female Balb/C mice [5]; Table 4B (FIG. 5B))	AUC (p/s*hour) (female Balb/C mice [6]; Table 4D (FIG. 5D))	PDI [1, 10]	Particle size (nm) ([1]; Table 1, Example 1 LNP preparations (ionizable lipid:DSPC:cholesterol:DMG-PEG))	Encapsulation efficiency (%) [2, 10]	total Spike protein antibody titer (female Balb/C mice [7])
CCCCCCCCCC(CCCCCCCCC)OC(=O)CCCN(CCO)CCN(CCO)CCCC(=O)OC(CCCCCCCCC)CCCCCCCCC [LQ104-E15b-3]	0.083	52.80 nm	96.0%	−10.70 mV	6.161	–	–	–	–	–	–	–	–
CCCCCCCCC(CCCCCCCC)OC(=O)CCCCN(CCO)CCN(CCO)CCCCC(=O)OC(CCCCCCCC)CCCCCCCC [LQ104-E15b-2]	0.059	56.47 nm	96.8%	−6.81 mV	6.470	–	–	–	–	–	–	–	–
CCCCCCCC(CCCCCCC)OC(=O)CCCCCN(CCO)CCN(CCO)CCCCCC(=O)OC(CCCCCCC)CCCCCCC [LQ104-E15b-1]	0.059	71.08 nm	98.1%	−4.22 mV	6.754	2.26E+10 p/s*hour	5.58E+09 p/s*hour	–	–	–	–	–	–
CCCCCCCCC(CCCCCC)C(=O)OCCCCCCN(CCO)CCN(CCO)CCCCCCOC(=O)C(CCCCCC)CCCCCCCC (stereo not drawn) [LQ104-E17b-3R]	0.087	77.34 nm	97.4%	−2.203 mV	7.153	–	–	6.33E+09 p/s*hour	1.47E+09 p/s*hour	–	–	–	–
CCCCCCCCC(CCCCCC)OC(=O)CCCCCCN(CCO)CCN(CCO)CCCCCCC(=O)OC(CCCCCC)CCCCCCCC (stereo not drawn) [LQ104-E17b-3]	0.058	85.57 nm	97.4%	−2.788 mV	7.15	–	–	9.91E+10 p/s*hour	3.82E+09 p/s*hour	–	–	–	–
CCCCCCCCC(CCCCCCCC)OC(=O)CCCCCN(CCO)CCN(CCO)CCCCCC(=O)OC(CCCCCCCC)CCCCCCCC [LQ104-E16b-2]	0.098	75.44 nm	97.9%	−4.38 mV	6.761	8.98E+10 p/s*hour	3.50E+09 p/s*hour	–	–	–	–	–	–
CCCCCCCCC(CCCCCC)C(=O)OCCCCCCCN(CCO)CCN(CCO)CCCCCCCOC(=O)C(CCCCCC)CCCCCCCC (stereo not drawn) [LQ104-E18b-2R]	0.081	80.10 nm	97.4%	−2.013 mV	7.033	–	–	1.01E+10 p/s*hour	1.73E+09 p/s*hour	–	–	–	–
CCCCCCCCC(CCCCCCCC)OC(=O)CCCCCCN(CCO)CCN(CCO)CCCCCCC(=O)OC(CCCCCCCC)CCCCCCCC [LQ104-E17b-2]	0.045	74.14 nm	97.4%	−1.852 mV	6.852	–	–	5.58E+10 p/s*hour	2.49E+09 p/s*hour	–	–	–	–
CCCCCCCCCCCOC(=O)CCCCCN(CCCCCCCC(=O)OC(CCCCCCCC)CCCCCCCC)CCOC(=O)CC(=O)OCCN(CCCCCCCC(=O)OC(CCCCCCCC)CCCCCCCC)CCCCCC(=O)OCCCCCCCCCCC [LQ107]	–	–	–	–	–	–	–	–	–	0.025	83.56 nm	83.7%	did not increase
CCCCCCCCC(CCCCCC)OC(=O)CCCCCN(CCO)CCN(CCO)CCCCCC(=O)OC(CCCCCC)CCCCCCCC (stereo not drawn) [LQ104-E16b-3]	0.091	78.35 nm	97.6%	−5.94 mV	6.773	1.95E+10 p/s*hour	2.10E+09 p/s*hour	–	–	–	–	–	–
CCCCCCCCC(CCCCCC)C(=O)OCCCCCN(CCO)CCN(CCO)CCCCCOC(=O)C(CCCCCC)CCCCCCCC (stereo not drawn) [LQ104-E16b-3R]	0.088	89.68 nm	96.8%	−4.59 mV	6.802	1.47E+10 p/s*hour	2.19E+09 p/s*hour	–	–	–	–	–	–
CCCCCCCC(CCCCCCC)OC(=O)CCCCCCN(CCO)CCN(CCO)CCCCCCC(=O)OC(CCCCCCC)CCCCCCC [LQ104-E16b-1]	0.044	84.84 nm	97.2%	−3.35 mV	7.109	2.74E+10 p/s*hour	2.30E+09 p/s*hour	–	–	–	–	–	–
CCCCCCCC(CCCCCCC)OC(=O)CCCCCCCN(CCO)CCN(CCO)CCCCCCCC(=O)OC(CCCCCCC)CCCCCCC [LQ104-E17b-1]	0.082	85.67 nm	96.9%	−1.066 mV	7.19	–	–	3.16E+10 p/s*hour	2.66E+09 p/s*hour	–	–	–	–
CCCCCCCCCC(CCCCCCC)OC(=O)CCCCCN(CCO)CCN(CCO)CCCCCC(=O)OC(CCCCCCC)CCCCCCCCC (stereo not drawn) [LQ104-E17b-4]	0.061	72.30 nm	98.0%	−3.406 mV	6.469	–	–	7.68E+10 p/s*hour	2.86E+09 p/s*hour	–	–	–	–
CCCCCCCCCC(CCCCCCC)OC(=O)CCCCCCN(CCO)CCN(CCO)CCCCCCC(=O)OC(CCCCCCC)CCCCCCCCC (stereo not drawn) [LQ104-E18b-3]	0.063	90.39 nm	97.4%	−2.466 mV	7.039	–	–	1.06E+11 p/s*hour	4.80E+09 p/s*hour	–	–	–	–
CCCCCCCCC(CCCCCC)OC(=O)CCCCCCCN(CCO)CCN(CCO)CCCCCCCC(=O)OC(CCCCCC)CCCCCCCC (stereo not drawn) [LQ104-E18b-2]	0.084	84.46 nm	97.5%	−1.109 mV	7.262	–	–	5.32E+10 p/s*hour	3.06E+09 p/s*hour	–	–	–	–
